Experiment: xn = mol fraction of the nth substance listed, in the solute-free solvent

COc1cc2c(cc1OC)-c1cc3ccc(OC)c(OC)c3c[n+]1CC2.[Cl-] + CCO + O
solubility (g/100 g solution)
Conditions | 283.15 K | 288.15 K | 293.15 K | 298.15 K | 303.15 K | 308.15 K | 313.15 K | 318.15 K | 323.15 K | 328.15 K
x2 = 0.04165 | 1.22 | 1.49 | 1.87 | 2.33 | 2.87 | 3.46 | 4.17 | 4.96 | 5.87 | 6.89
x2 = 0.08908 | 1.26 | 1.54 | 1.93 | 2.4 | 2.94 | 3.56 | 4.28 | 5.08 | 6.01 | 7.05
x2 = 0.1436 | 1.34 | 1.62 | 2.03 | 2.52 | 3.14 | 3.77 | 4.52 | 5.34 | 6.28 | 7.33
x2 = 0.2068 | 1.44 | 1.74 | 2.17 | 2.68 | 3.27 | 3.94 | 4.73 | 5.59 | 6.6 | 7.72
x2 = 0.2812 | 1.57 | 1.89 | 2.37 | 2.96 | 3.58 | 4.32 | 5.15 | 6.02 | 7.08 | 8.21
x2 = 0.3698 | 1.72 | 2.06 | 2.54 | 3.13 | 3.8 | 4.55 | 5.44 | 6.39 | 7.51 | 8.77
x2 = 0.4772 | 1.88 | 2.23 | 2.75 | 3.38 | 4.16 | 5.02 | 5.95 | 6.91 | 8.09 | 9.31
x2 = 0.6101 | 2.02 | 2.39 | 2.94 | 3.6 | 4.33 | 5.16 | 6.14 | 7.16 | 8.39 | 9.76
x2 = 0.7788 | 2.11 | 2.48 | 3.08 | 3.79 | 4.53 | 5.41 | 6.4 | 7.47 | 8.65 | 9.96

OCCN(CCO)c1nc(N2CCCCC2)c2nc(N(CCO)CCO)nc(N3CCCCC3)c2n1 + CCO + O
solubility (g/100 g solution)
Conditions | 293.15 K | 298.15 K | 303.15 K | 308.15 K | 313.15 K | 318.15 K | 323.15 K | 328.15 K
x2 = 0.3 | 1.64 | 1.81 | 2.52 | 3.79 | 5.33 | 8.14 | 12.5 | 18
x2 = 0.4 | 2.59 | 3.74 | 5.59 | 7.99 | 10.8 | 16 | 22.2 | 29.9
x2 = 0.5 | 4.37 | 6.13 | 8.44 | 11.4 | 15.2 | 20.7 | 28.1 | 36.2
x2 = 0.6 | 5.48 | 7.13 | 9.58 | 13.1 | 16.6 | 22.2 | 29.3 | 37
x2 = 0.7 | 5.8 | 7.49 | 9.93 | 13.1 | 16.7 | 21.9 | 28.4 | 35.8
x2 = 0.8 | 5.06 | 6.52 | 8.76 | 11.6 | 14.9 | 19.3 | 25.6 | 32.2
x2 = 0.9 | 4.28 | 5.36 | 7.23 | 9.43 | 11.7 | 15.1 | 20.7 | 26.7

CCCCCOC(=O)Nc1nc(=O)n(C2OC(C)C(O)C2O)cc1F (stereo unspecified) + CCOC(C)=O + CCCCCC
solubility (g/100 g solution)
Conditions | 278.15 K | 283.15 K | 288.15 K | 293.15 K | 298.15 K | 303.15 K | 308.15 K | 313.15 K | 318.15 K | 323.15 K
x2 = 0.09988 | 0.0133 | 0.0183 | 0.0254 | 0.0345 | 0.0462 | 0.0616 | 0.0815 | 0.107 | 0.139 | 0.18
x2 = 0.2008 | 0.0154 | 0.0212 | 0.0286 | 0.0382 | 0.0506 | 0.0664 | 0.0863 | 0.111 | 0.143 | 0.181
x2 = 0.3 | 0.0501 | 0.0621 | 0.0766 | 0.0936 | 0.113 | 0.137 | 0.165 | 0.197 | 0.233 | 0.276
x2 = 0.4 | 0.113 | 0.134 | 0.159 | 0.219 | 0.187 | 0.255 | 0.296 | 0.341 | 0.392 | 0.448
x2 = 0.5003 | 0.141 | 0.171 | 0.207 | 0.248 | 0.296 | 0.351 | 0.413 | 0.484 | 0.565 | 0.655
x2 = 0.6 | 0.309 | 0.384 | 0.474 | 0.581 | 0.706 | 0.853 | 1.02 | 1.22 | 1.45 | 1.71
x2 = 0.6998 | 0.423 | 0.535 | 0.67 | 0.833 | 1.03 | 1.26 | 1.53 | 1.85 | 2.22 | 2.65
x2 = 0.7998 | 0.53 | 0.694 | 0.902 | 1.16 | 1.48 | 1.87 | 2.34 | 2.91 | 3.58 | 4.39
x2 = 0.8999 | 0.819 | 1.09 | 1.43 | 1.85 | 2.38 | 3.04 | 3.84 | 4.8 | 5.96 | 7.33

CCCCCOC(=O)Nc1nc(=O)n(C2OC(C)C(O)C2O)cc1F (stereo unspecified) + CCOC(C)=O + CCCCCCC
solubility (g/100 g solution)
Conditions | 278.15 K | 283.15 K | 288.15 K | 293.15 K | 298.15 K | 303.15 K | 308.15 K | 313.15 K | 318.15 K | 323.15 K
x2 = 0.3 | 0.0197 | 0.0268 | 0.0361 | 0.0476 | 0.0629 | 0.0818 | 0.106 | 0.136 | 0.174 | 0.22
x2 = 0.4 | 0.0475 | 0.0561 | 0.0765 | 0.0904 | 0.106 | 0.132 | 0.154 | 0.184 | 0.216 | 0.267
x2 = 0.5 | 0.0862 | 0.111 | 0.141 | 0.179 | 0.221 | 0.274 | 0.337 | 0.411 | 0.502 | 0.604
x2 = 0.5998 | 0.131 | 0.166 | 0.212 | 0.286 | 0.332 | 0.407 | 0.518 | 0.643 | 0.749 | 0.931
x2 = 0.7 | 0.266 | 0.34 | 0.455 | 0.554 | 0.682 | 0.849 | 1.07 | 1.31 | 1.63 | 1.98
x2 = 0.8 | 0.485 | 0.609 | 0.801 | 0.99 | 1.27 | 1.6 | 2.05 | 2.49 | 3.12 | 3.74
x2 = 0.9001 | 0.622 | 0.794 | 1.08 | 1.44 | 1.81 | 2.46 | 3.02 | 4.02 | 4.87 | 6.07

Cl.N=C(N)N + CN1CCCC1=O + CCCO
solubility (g/100 g solution)
Conditions | 278.15 K | 283.15 K | 288.15 K | 293.15 K | 298.15 K | 303.15 K | 308.15 K | 313.15 K | 318.15 K | 323.15 K
x2 = 0.06317 | 8.4 | 9.4 | 10.7 | 11.5 | 12.7 | 13.3 | 15.1 | 16.1 | 17.7 | 18.6
x2 = 0.2064 | 15.9 | 17 | 17.8 | 19.2 | 20.1 | 21.4 | 22.1 | 23.2 | 24.7 | 25.3
x2 = 0.3774 | 28.5 | 29.2 | 30.4 | 31 | 32.1 | 32.6 | 33.7 | 34.4 | 35.4 | 35.9
x2 = 0.5858 | 37.2 | 37.8 | 39.1 | 40.2 | 41.4 | 42.1 | 43.4 | 44.3 | 46 | 47.3
x2 = 0.845 | 41.9 | 43.3 | 44.2 | 45.5 | 46.7 | 47.9 | 49.3 | 50.4 | 52.6 | 53.1
